Assay results from paper PMC3865603 (Cancer chemotherapy and pharmacology, 2011).

Assay: Plasma pharmacokinetics, non-compartmental
Format: in vivo, human
[1] = KOS-1584 0.8 mg/m^2, 3 h infusion, cycle 1, N=1
[2] = KOS-1584 1.5 mg/m^2, 3 h infusion, cycle 1, N=4
[3] = KOS-1584 2.5 mg/m^2, 3 h infusion, cycle 1, N=4
[4] = KOS-1584 3.7 mg/m^2, 3 h infusion, cycle 1, N=3
[5] = KOS-1584 5.0 mg/m^2, 3 h infusion, cycle 1, N=4
[6] = KOS-1584 6.5 mg/m^2, 3 h infusion, cycle 1, N=6
[7] = KOS-1584 8.5 mg/m^2, 3 h infusion, cycle 1, N=3
[8] = KOS-1584 11.3 mg/m^2, 3 h infusion, cycle 1, N=4
[9] = KOS-1584 15.0 mg/m^2, 3 h infusion, cycle 1, N=4
[10] = KOS-1584 20.0 mg/m^2, 3 h infusion, cycle 1, N=5
[11] = KOS-1584 27 mg/m^2, 3 h infusion, cycle 1, N=4
[12] = KOS-1584 36 mg/m^2, 3 h infusion, cycle 1, N=16
[13] = KOS-1584 42 mg/m^2, 3 h infusion, cycle 1, N=6
[14] = KOS-1584 48 mg/m^2, 3 h infusion, cycle 1, N=2
[15] = all cohorts 0.8-48 mg/m^2, cycle 1

## C/C1=C/C[C@@H](/C(C)=C/c2csc(C)n2)OC(=O)C[C@H](O)C(C)(C)C(=O)[C@H](C)[C@@H](O)[C@@H](C)/C=C/C1 [KOS-1584, (E)-9,10-didehydroepothilone D]
0.8-48 mg/m^2
  linearity of pharmacokinetics: linear pharmacokinetics
[1]
  KOS-1584 AUC: 26.7 ng·h/mL
  KOS-1584 CL: 30.0 L/h/m^2
  KOS-1584 Cmax: 5.73 ng/mL
  KOS-1584 Tmax: 3.0 ng/mL
  KOS-1584 Vλ: 541 L/m^2
  KOS-1584 t1/2: 12.5 h
[2]
  KOS-1584 AUC: 64.9 ± 16.3 ng·h/mL
  KOS-1584 CL: 24.6 ± 7.63 L/h/m^2
  KOS-1584 Cmax: 9.29 ± 4.16 ng/mL
  KOS-1584 Tmax: 2.0 ± 1.2 ng/mL
  KOS-1584 Vλ: 553 ± 146 L/m^2
  KOS-1584 t1/2: 16.0 ± 3.96 h
[3]
  KOS-1584 AUC: 170 ± 2.21 ng·h/mL
  KOS-1584 CL: 14.9 ± 1.95 L/h/m^2
  KOS-1584 Cmax: 18.0 ± 5.24 ng/mL
  KOS-1584 Tmax: 3.0 ± 0.02 ng/mL
  KOS-1584 Vλ: 385 ± 109 L/m^2
  KOS-1584 t1/2: 18.2 ± 6.37 h
[4]
  KOS-1584 AUC: 359 ± 40.7 ng·h/mL
  KOS-1584 CL: 10.4 ± 1.27 L/h/m^2
  KOS-1584 Cmax: 32.9 ± 10.8 ng/mL
  KOS-1584 Tmax: 3.0 ± 0.06 ng/mL
  KOS-1584 Vλ: 279 ± 60.1 L/m^2
  KOS-1584 t1/2: 18.7 ± 3.64 h
[5]
  KOS-1584 AUC: 468 ± 140 ng·h/mL
  KOS-1584 CL: 11.3 ± 2.84 L/h/m^2
  KOS-1584 Cmax: 41.9 ± 13.4 ng/mL
  KOS-1584 Tmax: 2.61 ± 0.74 ng/mL
  KOS-1584 Vλ: 269 ± 104 L/m^2
  KOS-1584 t1/2: 16.0 ± 2.53 h
[6]
  KOS-1584 AUC: 566 ± 159 ng·h/mL
  KOS-1584 CL: 12.4 ± 2.91 L/h/m^2
  KOS-1584 Cmax: 41.9 ± 11.3 ng/mL
  KOS-1584 Tmax: 2.49 ± 0.76 ng/mL
  KOS-1584 Vλ: 348 ± 79.9 L/m^2
  KOS-1584 t1/2: 19.9 ± 4.68 h
[7]
  KOS-1584 AUC: 620 ± 317 ng·h/mL
  KOS-1584 CL: 15.9 ± 6.34 L/h/m^2
  KOS-1584 Cmax: 78.4 ± 28.8 ng/mL
  KOS-1584 Tmax: 2.96 ± 0.03 ng/mL
  KOS-1584 Vλ: 327 ± 190 L/m^2
  KOS-1584 t1/2: 13.7 ± 4.57 h
[8]
  KOS-1584 AUC: 2,206 ± 994 ng h/mL
  KOS-1584 CL: 6.28 ± 3.56 L/h/m^2
  KOS-1584 Cmax: 140 ± 41.9 ng/mL
  KOS-1584 Tmax: 2.60 ± 0.68 ng/mL
  KOS-1584 Vλ: 267 ± 197 L/m^2
  KOS-1584 t1/2: 28.5 ± 6.77 h
[9]
  KOS-1584 AUC: 2,204 ± 946 ng h/mL
  KOS-1584 CL: 7.69 ± 2.89 L/h/m^2
  KOS-1584 Cmax: 220 ± 84.7 ng/mL
  KOS-1584 Tmax: 2.97 ± 0.03 ng/mL
  KOS-1584 Vλ: 263 ± 113 L/m^2
  KOS-1584 t1/2: 23.5 ± 1.77 h
[10]
  KOS-1584 AUC: 2,440 ± 945 ng h/mL
  KOS-1584 CL: 9.28 ± 3.56 L/h/m^2
  KOS-1584 Cmax: 284 ± 153 ng/mL
  KOS-1584 Tmax: 2.38 ± 0.80 ng/mL
  KOS-1584 Vλ: 288 ± 165 L/m^2
  KOS-1584 t1/2: 20.2 ± 8.15 h
[11]
  KOS-1584 AUC: 3,190 ± 1,490 ng h/mL
  KOS-1584 CL: 10.1 ± 5.00 L/h/m^2
  KOS-1584 Cmax: 259 ± 110 ng/mL
  KOS-1584 Tmax: 3.10 ± 0.27 ng/mL
  KOS-1584 Vλ: 434 ± 339 L/m^2
  KOS-1584 t1/2: 27.8 ± 9.08 h
[12]
  KOS-1584 AUC: 5,267 ± 3,190 ng h/mL
  KOS-1584 CL: 8.98 ± 4.59 L/h/m^2
  KOS-1584 Cmax: 701 ± 425 ng/mL
  KOS-1584 Tmax: 2.67 ± 0.58 ng/mL
  KOS-1584 Vλ: 329 ± 134 L/m^2
  KOS-1584 t1/2: 27.9 ± 10.6 h
[13]
  KOS-1584 AUC: 7,355 ± 4,718 ng h/mL
  KOS-1584 CL: 8.52 ± 5.43 L/h/m^2
  KOS-1584 Cmax: 1,066 ± 513 ng/mL
  KOS-1584 Tmax: 2.95 ± 0.04 ng/mL
  KOS-1584 Vλ: 277 ± 165 L/m^2
  KOS-1584 t1/2: 24.1 ± 9.37 h
[14]
  KOS-1584 AUC: 4,727 ± 167 ng h/mL
  KOS-1584 CL: 10.1 ± 0.27 L/h/m^2
  KOS-1584 Cmax: 769 ± 42.4 ng/mL
  KOS-1584 Tmax: 2.92 ± 0.0 ng/mL
  KOS-1584 Vλ: 349 ± 205 L/m^2
  KOS-1584 t1/2: 24.1 ± 14.7 h
[15]
  mean overall clearance: 11 ± 6.17 L/h/m^2
  mean overall half-life of KOS-1584: 21.9 ± 8.75 h
  mean overall volume of distribution: 327 ± 161 L/m^2
Every 3 weeks dosing, cycles 1 and 2
  accumulation: no accumulation
